The supplement of paper PMC10307832

Columns and labels:
Experiment in all cases: relative viability (nuclei count vs DMSO), 5 days (fraction); higher = more cells survive
201T = tested on: 201T
Procedure, shortened: (§1)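 Lung cancer cell lines in 1536-well plates got either a single drug or a fixed anchor-drug dose together with five library-drug doses (not always all listed) in √10 steps, by pin tool, on the day after seeding. Nuclei were counted after 5 days, and relative viability is the treated-to-vehicle ratio of nuclei counts. Values are medians of duplicate plates.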

BEN = tested on: BEN
Procedure, shortened: as §1

COR-L 105 = tested on: COR-L 105
Procedure, shortened: as §1

COR-L23 = tested on: COR-L23
Procedure, shortened: as §1

EKVX = tested on: EKVX
Procedure, shortened: as §1

HARA = tested on: HARA
Procedure, shortened: as §1

HCC-15 = tested on: HCC-15
Procedure, shortened: as §1

HCC-366 = tested on: HCC-366
Procedure, shortened: as §1

HCC-78 = tested on: HCC-78
Procedure, shortened: as §1

HCC-827 = tested on: HCC-827
Procedure, shortened: as §1

LC-2-ad = tested on: LC-2-ad
Procedure, shortened: as §1

LU99A = tested on: LU99A
Procedure, shortened: as §1

LXF-289 = tested on: LXF-289
Procedure, shortened: as §1

NCI-H1734 = tested on: NCI-H1734
Procedure, shortened: as §1

NCI-H1755 = tested on: NCI-H1755
Procedure, shortened: as §1

NCI-H1944 = tested on: NCI-H1944
Procedure, shortened: as §1

NCI-H1975 = tested on: NCI-H1975
Procedure, shortened: as §1

NCI-H1993 = tested on: NCI-H1993
Procedure, shortened: as §1

NCI-H3122 = tested on: NCI-H3122
Procedure, shortened: as §1

NCI-H596 = tested on: NCI-H596
Procedure, shortened: as §1

RERF-LC-KJ = tested on: RERF-LC-KJ
Procedure, shortened: as §1

SK-LU-1 = tested on: SK-LU-1
Procedure, shortened: as §1

Cc1cnc(-c2cnc(NCCNc3ccc(C#N)cn3)nc2-c2ccc(Cl)cc2Cl)[nH]1 + C[C@]1(O)C[C@@H](c2nc(-c3ccc4ccc(-c5ccccc5)nc4c3)c3c(N)nccn32)C1 [Linsitinib] (partner 1 µM)
relative viability (201T; first compound 0.08 µM): 1.03
relative viability (201T; first compound 0.253 µM): 1.01
relative viability (201T; first compound 0.8 µM): 1.02
relative viability (201T; first compound 2.53 µM): 1.01
relative viability (BEN; first compound 0.08 µM): 0.951
relative viability (BEN; first compound 0.253 µM): 0.843
relative viability (BEN; first compound 0.8 µM): 0.994
relative viability (BEN; first compound 2.53 µM): 0.928
relative viability (COR-L 105; first compound 0.08 µM): 1
relative viability (COR-L 105; first compound 0.253 µM): 0.897
relative viability (COR-L 105; first compound 0.8 µM): 0.832
relative viability (COR-L 105; first compound 2.53 µM): 0.697
relative viability (COR-L23; first compound 0.08 µM): 0.814
relative viability (COR-L23; first compound 0.253 µM): 0.833
relative viability (COR-L23; first compound 0.8 µM): 0.929
relative viability (COR-L23; first compound 2.53 µM): 0.962
relative viability (EKVX; first compound 0.08 µM): 1.07
relative viability (EKVX; first compound 0.253 µM): 0.794
relative viability (EKVX; first compound 0.8 µM): 0.934
relative viability (EKVX; first compound 2.53 µM): 0.926
relative viability (HARA; first compound 0.08 µM): 1.1
relative viability (HARA; first compound 0.253 µM): 0.847
relative viability (HARA; first compound 0.8 µM): 0.921
relative viability (HARA; first compound 2.53 µM): 0.933
relative viability (HCC-15; first compound 0.08 µM): 0.897
relative viability (HCC-15; first compound 0.253 µM): 0.811
relative viability (HCC-15; first compound 0.8 µM): 0.8
relative viability (HCC-15; first compound 2.53 µM): 0.835
relative viability (HCC-366; first compound 0.08 µM): 0.694
relative viability (HCC-366; first compound 0.253 µM): 0.557
relative viability (HCC-366; first compound 0.8 µM): 0.608
relative viability (HCC-366; first compound 2.53 µM): 0.28
relative viability (HCC-78; first compound 0.08 µM): 0.632
relative viability (HCC-78; first compound 0.253 µM): 0.437
relative viability (HCC-78; first compound 0.8 µM): 0.459
relative viability (HCC-78; first compound 2.53 µM): 0.435
relative viability (HCC-827; first compound 0.08 µM): 0.963
relative viability (HCC-827; first compound 0.8 µM): 1.01
relative viability (HCC-827; first compound 2.53 µM): 0.955
relative viability (LC-2-ad; first compound 0.08 µM): 0.905
relative viability (LC-2-ad; first compound 0.8 µM): 0.858
relative viability (LC-2-ad; first compound 2.53 µM): 0.92
relative viability (LU99A; first compound 0.08 µM): 0.592
relative viability (LU99A; first compound 0.253 µM): 0.538
relative viability (LU99A; first compound 0.8 µM): 0.5
relative viability (LU99A; first compound 2.53 µM): 0.569
relative viability (LXF-289; first compound 0.08 µM): 0.965
relative viability (LXF-289; first compound 0.253 µM): 0.897
relative viability (LXF-289; first compound 0.8 µM): 1.01
relative viability (LXF-289; first compound 2.53 µM): 0.984
relative viability (NCI-H1734; first compound 0.08 µM): 1.01
relative viability (NCI-H1734; first compound 0.253 µM): 0.763
relative viability (NCI-H1734; first compound 0.8 µM): 0.837
relative viability (NCI-H1734; first compound 2.53 µM): 0.849
relative viability (NCI-H1755; first compound 0.08 µM): 1.03
relative viability (NCI-H1755; first compound 0.253 µM): 0.856
relative viability (NCI-H1755; first compound 0.8 µM): 0.958
relative viability (NCI-H1755; first compound 2.53 µM): 0.991
relative viability (NCI-H1944; first compound 0.08 µM): 1.36
relative viability (NCI-H1944; first compound 0.8 µM): 1.23
relative viability (NCI-H1944; first compound 2.53 µM): 1.21
relative viability (NCI-H1975; first compound 0.08 µM): 1
relative viability (NCI-H1975; first compound 0.253 µM): 0.847
relative viability (NCI-H1975; first compound 0.8 µM): 0.836
relative viability (NCI-H1975; first compound 2.53 µM): 0.603
relative viability (NCI-H1993; first compound 0.08 µM): 0.74
relative viability (NCI-H1993; first compound 0.253 µM): 0.763
relative viability (NCI-H1993; first compound 0.8 µM): 0.701
relative viability (NCI-H1993; first compound 2.53 µM): 0.784
relative viability (NCI-H3122; first compound 0.08 µM): 1.04
relative viability (NCI-H3122; first compound 0.253 µM): 0.949
relative viability (NCI-H3122; first compound 0.8 µM): 1.04
relative viability (NCI-H3122; first compound 2.53 µM): 0.997
relative viability (NCI-H596; first compound 0.08 µM): 1.02
relative viability (NCI-H596; first compound 0.253 µM): 1.11
relative viability (NCI-H596; first compound 0.8 µM): 1.06
relative viability (NCI-H596; first compound 2.53 µM): 1.07
relative viability (RERF-LC-KJ; first compound 0.08 µM): 0.948
relative viability (RERF-LC-KJ; first compound 0.253 µM): 0.828
relative viability (RERF-LC-KJ; first compound 0.8 µM): 0.843
relative viability (RERF-LC-KJ; first compound 2.53 µM): 0.877
relative viability (SK-LU-1; first compound 0.08 µM): 1.13
relative viability (SK-LU-1; first compound 0.253 µM): 1.12
relative viability (SK-LU-1; first compound 0.8 µM): 1.32
relative viability (SK-LU-1; first compound 2.53 µM): 1.09

Cc1cnc(-c2cnc(NCCNc3ccc(C#N)cn3)nc2-c2ccc(Cl)cc2Cl)[nH]1 + Cc1nc(NC(=O)N2CCC[C@H]2C(N)=O)sc1-c1ccnc(C(C)(C)C(F)(F)F)c1 [Alpelisib] (partner 2 µM)
relative viability (201T; first compound 0.08 µM): 1.07
relative viability (201T; first compound 0.253 µM): 0.959
relative viability (201T; first compound 0.8 µM): 1.01
relative viability (201T; first compound 2.53 µM): 1.02
relative viability (BEN; first compound 0.08 µM): 1.22
relative viability (BEN; first compound 0.253 µM): 0.973
relative viability (BEN; first compound 0.8 µM): 0.964
relative viability (BEN; first compound 2.53 µM): 1.04
relative viability (COR-L 105; first compound 0.08 µM): 0.994
relative viability (COR-L 105; first compound 0.253 µM): 0.927
relative viability (COR-L 105; first compound 0.8 µM): 1.11
relative viability (COR-L 105; first compound 2.53 µM): 0.612
relative viability (COR-L23; first compound 0.08 µM): 0.918
relative viability (COR-L23; first compound 0.253 µM): 0.649
relative viability (COR-L23; first compound 0.8 µM): 0.826
relative viability (COR-L23; first compound 2.53 µM): 0.774
relative viability (EKVX; first compound 0.08 µM): 1.04
relative viability (EKVX; first compound 0.253 µM): 0.739
relative viability (EKVX; first compound 0.8 µM): 0.839
relative viability (EKVX; first compound 2.53 µM): 0.766
relative viability (HARA; first compound 0.08 µM): 0.994
relative viability (HARA; first compound 0.253 µM): 0.673
relative viability (HARA; first compound 0.8 µM): 0.746
relative viability (HARA; first compound 2.53 µM): 0.827
relative viability (HCC-15; first compound 0.08 µM): 0.857
relative viability (HCC-15; first compound 0.253 µM): 0.815
relative viability (HCC-15; first compound 0.8 µM): 0.853
relative viability (HCC-15; first compound 2.53 µM): 0.881
relative viability (HCC-366; first compound 0.08 µM): 0.369
relative viability (HCC-366; first compound 0.253 µM): 0.364
relative viability (HCC-366; first compound 0.8 µM): 0.33
relative viability (HCC-366; first compound 2.53 µM): 0.32
relative viability (HCC-78; first compound 0.08 µM): 0.401
relative viability (HCC-78; first compound 0.253 µM): 0.285
relative viability (HCC-78; first compound 0.8 µM): 0.308
relative viability (HCC-78; first compound 2.53 µM): 0.333
relative viability (HCC-827; first compound 0.08 µM): 1.08
relative viability (HCC-827; first compound 0.8 µM): 0.99
relative viability (HCC-827; first compound 2.53 µM): 0.929
relative viability (LC-2-ad; first compound 0.08 µM): 1.04
relative viability (LC-2-ad; first compound 0.8 µM): 0.832
relative viability (LC-2-ad; first compound 2.53 µM): 0.892
relative viability (LU99A; first compound 0.08 µM): 0.606
relative viability (LU99A; first compound 0.253 µM): 0.548
relative viability (LU99A; first compound 0.8 µM): 0.557
relative viability (LU99A; first compound 2.53 µM): 0.516
relative viability (LXF-289; first compound 0.08 µM): 1.11
relative viability (LXF-289; first compound 0.253 µM): 1
relative viability (LXF-289; first compound 0.8 µM): 1.05
relative viability (LXF-289; first compound 2.53 µM): 1.08
relative viability (NCI-H1734; first compound 0.08 µM): 0.766
relative viability (NCI-H1734; first compound 0.253 µM): 0.673
relative viability (NCI-H1734; first compound 0.8 µM): 0.656
relative viability (NCI-H1734; first compound 2.53 µM): 0.633
relative viability (NCI-H1755; first compound 0.08 µM): 0.998
relative viability (NCI-H1755; first compound 0.253 µM): 0.851
relative viability (NCI-H1755; first compound 0.8 µM): 0.901
relative viability (NCI-H1755; first compound 2.53 µM): 0.896
relative viability (NCI-H1944; first compound 0.08 µM): 0.827
relative viability (NCI-H1944; first compound 0.8 µM): 0.84
relative viability (NCI-H1944; first compound 2.53 µM): 0.824
relative viability (NCI-H1975; first compound 0.08 µM): 0.667
relative viability (NCI-H1975; first compound 0.253 µM): 0.571
relative viability (NCI-H1975; first compound 0.8 µM): 0.561
relative viability (NCI-H1975; first compound 2.53 µM): 0.52
relative viability (NCI-H1993; first compound 0.08 µM): 0.715
relative viability (NCI-H1993; first compound 0.253 µM): 0.72
relative viability (NCI-H1993; first compound 0.8 µM): 0.683
relative viability (NCI-H1993; first compound 2.53 µM): 0.694
relative viability (NCI-H3122; first compound 0.08 µM): 0.858
relative viability (NCI-H3122; first compound 0.253 µM): 0.771
relative viability (NCI-H3122; first compound 0.8 µM): 0.725
relative viability (NCI-H3122; first compound 2.53 µM): 0.762
relative viability (NCI-H596; first compound 0.08 µM): 0.532
relative viability (NCI-H596; first compound 0.253 µM): 0.375
relative viability (NCI-H596; first compound 0.8 µM): 0.517
relative viability (NCI-H596; first compound 2.53 µM): 0.469
relative viability (RERF-LC-KJ; first compound 0.08 µM): 0.984
relative viability (RERF-LC-KJ; first compound 0.253 µM): 0.746
relative viability (RERF-LC-KJ; first compound 0.8 µM): 0.775
relative viability (RERF-LC-KJ; first compound 2.53 µM): 0.916
relative viability (SK-LU-1; first compound 0.08 µM): 1.09
relative viability (SK-LU-1; first compound 0.253 µM): 0.931
relative viability (SK-LU-1; first compound 0.8 µM): 1.28
relative viability (SK-LU-1; first compound 2.53 µM): 1.18
